The source of these data is ChEMBL document CHEMBL1158738, “Constituents of the leaves and twigs of Calyptranthes pallens collected from an experimental plot in Southern Florida” (J Nat Prod, 2005).

One data set has as its system LNCaP. In words: Cytotoxicity against human LNCAP cells. The conditions noted are these: read-out: ED50 (the source's name). The data set is classed as functional.
For another data set, the system named is Lu1. In words: Cytotoxicity against human Lu1 cells. It is filed as functional. The settings on record: read-out: ED50 (the source's name).
Another data set relates to MCF7. In words: Cytotoxicity against human MCF7 cells. The settings on record: read-out: ED50 (the source's name). The data set is classed as functional.
A further data set has as its system KB. In words: Cytotoxicity against human KB cells. The data set is classed as functional. The conditions noted are these: read-out: ED50 (the source's name).
The nature of data set [1]: Cytotoxicity against HUVEC. The settings on record: human, HUVEC cells; read-out: ED50 (the source's name). The data set is classed as cell-based.
Data set [2] is described as follows: Cytotoxicity against human telomerase reverse transcriptase human RPE1 cells. The data set is classed as functional, TERT-RPE1. The conditions noted are these: RPE-1, read-out: ED50 (the source's name).

≈ marks a conversion by molar mass, not a printed value. A value given as a limit tells only on which side of the number the result lay.

Take `CC1=CC[C@]2(C(=O)O)CC[C@]3(C)[C@H](CC[C@@H]4[C@@]5(C)CC[C@H](O)C(C)(C)[C@@H]5CC[C@]43C)[C@H]2[C@@H]1C`: the EC50 in the data set on LNCaP is 7.3 mg/L (≈ 16 µM); in the data set on Lu1 it was 12.9 mg/L (≈ 28.2 µM); in the data set with MCF7 it was 9.7 mg/L (≈ 21.2 µM); with KB, greater than 20 mg/L. The CC50 in data set [1] stood at 10.4 mg/L (≈ 22.8 µM).
`CCCC(=O)c1c(O)c(C)c(OC)c(Cc2c(O)c(C(=O)CCC)c(O)c(C)c2OC)c1O`: the EC50 with LNCaP worked out at 6.6 mg/L (≈ 14.3 µM); in the data set on Lu1 it was 19.4 mg/L (≈ 42.1 µM); with MCF7, 7.3 mg/L (≈ 15.9 µM); with KB, 2.7 mg/L (≈ 5.86 µM). Moreover, the CC50 in data set [1] came to 6.1 mg/L (≈ 13.2 µM).
With `COc1cc([C@@H]2c3cc(O)c(OC)cc3C[C@@H](C)[C@H]2C)ccc1O` [ISOGUAIACIN], the EC50 in the data set on LNCaP is 11.8 mg/L (≈ 35.9 µM); in the data set on Lu1, 15.7 mg/L (≈ 47.8 µM); in the data set on MCF7 it was 12.4 mg/L (≈ 37.8 µM); in data set [2] it was greater than 20 mg/L; in the data set on KB, 6.4 mg/L (≈ 19.5 µM). The CC50 in data set [1] amounted to 14.7 mg/L (≈ 44.8 µM).
